Assays:
[1] = xn = mol fraction of the nth substance listed; details: 298.15 K, 100 kPa, Liquid, Sing-around technique in a fixed-path interferometer
[2] = refractive index (other wavelength) (dimensionless); wn = mass fraction of the nth substance listed; details: 298.15 K, 100 kPa, Liquid, Wavelength=589.3 nm, Digital Refractometer Mettler Toledo
[3] = wn = mass fraction of the nth substance listed; details: 298.15 K, 100 kPa, Liquid; for viscosity: Capillary tube (Ostwald / Ubbelohde) method; for mass density: Vibrating tube method

CCCC[P+](CCCC)(CCCC)CCCC.F[B-](F)(F)F [tetrabutylphosphonium tetrafluoroborate] + O
Details | mass density, [3] [kg/m3] | refractive index, [2] | speed of sound, [1] [m/s] | viscosity, [3] [mPa·s]
w1 = 0.001 | 997.16 | 1.3326 | – | 0.901
w1 = 0.003 | 998.67 | 1.3333 | – | 0.909
w1 = 0.005 | 1000.05 | 1.3341 | – | 0.914
x1 = 0.001 | – | – | 1498.9 | –
x1 = 0.003 | – | – | 1502.6 | –
x1 = 0.005 | – | – | 1507.5 | –

— the NIST ThermoML archive (doi:10.1016/j.fluid.2013.03.030)
